Tests used:
Format in all cases: cell-based
[1] = test system: 22Rv1 cells; experiment: Live and dead cell staining, 22Rv1 cells; conditions: SH-I-125 1 μM, 3 days
Protocol: Live and dead cells were determined using a Cell Viability/Cytotoxicity Assay kit (Biotium Inc.; Hayward, Calif.).
To determine the effects of SH-I-125 on prostate cancer cell growth, 22Rv1 cells were treated with SH-I-125 and cell viability was measured after a period of 3 days. […]. In comparison, non-tumorigenic primary prostate epithelial cells (PrEC) retained 80% viability in the presence of a similar range of doses of SH-I-125, showing that tumorigenic cells are more susceptible to the growth inhibitory properties of SH-I-125 compared to non-tumorigenic cells (FIG. 8B). […] Staurosporine was used as a positive control for cell death induction in live and dead assays (FIG. 9C).

[2] = test system: AR and AR-V7; experiment: Western blot of AR and AR-V7 levels in 22Rv1 cells
Protocol: AR levels were assessed by Western blotting. β-actin was used as a loading control.
(§1) AR and AR-V7 levels were assessed. β-actin was used as a loading control.
as §1
MG132 (5 μM), a known proteasome inhibitor, was added on Day 2. AR expression was assessed by Western blotting. β-actin was used as a loading control.

[3] = test system: 22Rv1-MDVR cells; experiment: Caspase-Glo 3/7 activity assay, 22Rv1-MDVR cells; conditions: SH-I-125 1 μM, 3 days
Protocol: Caspase 3/7 activity was measured using Caspase-Glo 3/7 substrates. Data represent mean of three independent experiments with quadruplicate samples; bars, SEM.
The emergence of resistance to clinical anti-androgens is an ongoing problem in the treatment of castration-resistant prostate cancer.

[4] = test system: estrogen response element; experiment: Estrogen response element (ERE) luciferase reporter in 22Rv1 cells; conditions: 1 μM, 24 hours
Protocol: (§2) 22Rv1 cells were transfected with ERE promoter-luciferase reporter construct and Renilla luciferase plasmids (pRL-TK-Luc) and treated with 1 μM of SH-I-125 for 24 hours. Promoter activity was determined after normalization with Renilla luciferase activity. Columns, mean of three independent experiments with quadruplicate samples; bars, SEM.

[5] = test system: hTERT promoter; experiment: hTERT promoter-luciferase reporter in 22Rv1 cells; conditions: 2.5 μM, 24 hours
Protocol: as §2, with “with hTERT” for “with ERE”, “with 2.5” for “with 1”

[6] = molecular target: T1, AR (Homo sapiens, UniProt P10275); experiment: Immunofluorescence staining and Western blot of AR and PSA in VCaP cells; conditions: DHT 1 nM, MDV3100 10 μM or SH-I-125 1 μM, 24 hours
T1 construct: Androgen-dependent VCaP cells were made to stably express an androgen-response element luciferase reporter (VCaP-ARE-luc); host or cells: VCaP / VCaP-ARE-luc
T1 sequence (P10275 1-920): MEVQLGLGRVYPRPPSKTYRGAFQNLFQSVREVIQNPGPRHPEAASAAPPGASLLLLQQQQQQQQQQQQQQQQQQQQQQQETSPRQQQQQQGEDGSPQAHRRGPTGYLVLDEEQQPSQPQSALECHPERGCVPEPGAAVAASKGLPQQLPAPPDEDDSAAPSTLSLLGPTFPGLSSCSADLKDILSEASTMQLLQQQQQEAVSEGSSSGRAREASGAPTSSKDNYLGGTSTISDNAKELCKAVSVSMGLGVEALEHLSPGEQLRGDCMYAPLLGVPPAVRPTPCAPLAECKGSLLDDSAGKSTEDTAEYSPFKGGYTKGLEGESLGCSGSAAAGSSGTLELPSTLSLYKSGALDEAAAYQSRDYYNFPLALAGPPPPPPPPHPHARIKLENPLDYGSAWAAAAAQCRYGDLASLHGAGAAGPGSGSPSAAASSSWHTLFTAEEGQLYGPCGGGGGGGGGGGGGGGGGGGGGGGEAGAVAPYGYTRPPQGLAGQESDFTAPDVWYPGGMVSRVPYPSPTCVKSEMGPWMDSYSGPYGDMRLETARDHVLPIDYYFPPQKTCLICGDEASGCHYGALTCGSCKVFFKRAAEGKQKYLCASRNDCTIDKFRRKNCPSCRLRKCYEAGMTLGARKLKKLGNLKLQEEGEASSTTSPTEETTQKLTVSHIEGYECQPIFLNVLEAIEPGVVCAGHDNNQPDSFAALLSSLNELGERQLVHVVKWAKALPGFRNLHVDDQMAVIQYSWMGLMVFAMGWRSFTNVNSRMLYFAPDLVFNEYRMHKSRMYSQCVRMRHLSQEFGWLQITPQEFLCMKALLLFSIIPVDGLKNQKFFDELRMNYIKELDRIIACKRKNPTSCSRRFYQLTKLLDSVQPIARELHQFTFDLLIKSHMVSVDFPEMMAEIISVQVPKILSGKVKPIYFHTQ
Protocol: Androgen receptor (AR) and PSA expression levels were assessed.
AR and PSA expression levels were assessed. B-actin was used as a loading control.

[7] = test system: AR; experiment: Immunofluorescence staining of AR in 22Rv1-MDVR cells; conditions: MDV3100 10 μM, ARN509 10 μM or SH-I-125 1 μM, 24 hours
Protocol: […]. AR and AR-V7 expression levels were assessed.
Immunofluorescence staining was performed as described in Amin et al., Mol. Cancer Ther., 13:341-52 (2014).

**Q.** `COc1ccc2c(c1)[nH]c1c(C)c(OS(=O)(=O)c3cccc4ccccc34)ccc12` [SH-I-125, 7-methoxy-1-methyl-9H-carbazol-2-yl naphthalene-1-sulfonate] was tested. Which “live and dead cell staining” value [1] did it give?
**A.** killed 22Rv1 cells

**Q.** What about the “cellular AR and AR-V7 levels” value ([2]; 3 days, SH-I-125 at 1 μM) of the same compound?
**A.** reduced AR and AR-V7 levels

**Q.** What about the “AR and AR splice variant levels in the presence of proteasome inhibitor MG132” value ([2]; SH-I-125 plus MG132) of the same compound?
**A.** Proteasome inhibition rescued the decline

**Q.** And the “caspase 3/7 activation” value [3]?
**A.** inducing caspase activation

**Q.** What about the ERE promoter-luciferase activity [4] of the same compound?
**A.** unaffected

**Q.** And the hTERT promoter-luciferase activity [5]?
**A.** unaffected

**Q.** What about the AR nuclear localization [6] of the same compound?
**A.** blocked AR nuclear localization

**Q.** What about the PSA expression [6] of the same compound?
**A.** inhibited PSA expression

**Q.** And the AR nuclear localization [7]?
**A.** decreased AR nuclear levels

From patent US10487056B2, “Small molecule androgen receptor inhibitors and methods of use thereof” (GEORGETOWN UNIVERSITY, priority 2015, dated 2019)
